Data as given in PMC4536998 (Oncotarget, 2015).

Molecular target: T1, embryonic ectoderm development (EED) (Homo sapiens, UniProt O75530)
T1 construct: recombinant EED
Test: SPR (Biacore […], EED immobilized on CM5 chip, […] Langmuir fit); supported by competitive co-IP against EZH2
Format: binding

T1 sequence (O75530 2-441): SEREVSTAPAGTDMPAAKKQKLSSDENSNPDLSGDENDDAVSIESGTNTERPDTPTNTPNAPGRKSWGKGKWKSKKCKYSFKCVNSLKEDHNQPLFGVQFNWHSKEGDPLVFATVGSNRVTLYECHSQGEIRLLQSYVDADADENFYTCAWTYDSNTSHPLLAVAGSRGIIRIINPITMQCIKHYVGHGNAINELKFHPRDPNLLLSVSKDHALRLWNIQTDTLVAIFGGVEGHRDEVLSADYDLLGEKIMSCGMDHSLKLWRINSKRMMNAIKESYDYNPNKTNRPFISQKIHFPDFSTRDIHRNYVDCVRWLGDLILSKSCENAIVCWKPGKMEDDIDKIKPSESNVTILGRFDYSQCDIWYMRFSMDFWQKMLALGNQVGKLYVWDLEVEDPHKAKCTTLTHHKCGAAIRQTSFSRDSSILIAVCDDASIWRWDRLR

Compound: O=C(O[C@@H]1Cc2c(O)cc(O)cc2O[C@@H]1c1cc(O)c(O)c(O)c1)c1cc(O)c(O)c(O)c1 [1E7, EGCG]
- Kd: 15.1 µM
